In PMC11005723, “Development of Complementary Photo‐arginine/lysine to Promote Discovery of Arg/Lys hPTMs Interactomes” (Advanced Science, 2024):
Non-standard residues stand in square brackets, D forms with d. No end group written: not given here. *: point of attachment. Biotin = O=C1N[C@H]2[C@H](CS[C@H]2CCCCC(=O)*)N1; R(dz) = photo-arginine

Test system: HEK293T nuclear lysates
Assay: SILAC‐based pull‐down proteomics H4K5acK8ac/H4K5 (probes 8/5)
Format: binding, human
Conditions: for B6 log2 (H4K5ac8ac/H4K5): replicate B6; for A6 log2 (H4K5ac8ac/H4K5): replicate A6
[1] = protein YWHAB, Bos taurus (CON_00829553.1)

probe 8: H4K5acK8ac peptide probe with photo‐arginine R(dz) and K(biotin) (SG[R(dz)]GK(Ac)GGK(Ac)GLGKGGK(Biotin))
B6 log2 (H4K5ac8ac/H4K5) (protein MYH9 (P35579)): -0.04782
A6 log2 (H4K5ac8ac/H4K5) (protein NAA10 (P41227)): -0.3046
B6 log2 (H4K5ac8ac/H4K5) (protein NAA10 (P41227)): 0.05206
A6 log2 (H4K5ac8ac/H4K5) (protein NACC1 (Q96RE7)): 0.2811
B6 log2 (H4K5ac8ac/H4K5) (protein NACC1 (Q96RE7)): 0.03418
A6 log2 (H4K5ac8ac/H4K5) (protein NFXL1 (Q6ZNB6)): 0.2111
B6 log2 (H4K5ac8ac/H4K5) (protein NFXL1 (Q6ZNB6)): 0.02469
A6 log2 (H4K5ac8ac/H4K5) (protein NOL9 (Q5SY16)): -0.2567
B6 log2 (H4K5ac8ac/H4K5) (protein NOL9 (Q5SY16)): -0.02031
A6 log2 (H4K5ac8ac/H4K5) (protein PA2G4 (Q9UQ80)): 0.1563
B6 log2 (H4K5ac8ac/H4K5) (protein PA2G4 (Q9UQ80)): 0.03904
A6 log2 (H4K5ac8ac/H4K5) (protein PACSIN2 (Q9UNF0)): 0
B6 log2 (H4K5ac8ac/H4K5) (protein PACSIN2 (Q9UNF0)): -0.04928
A6 log2 (H4K5ac8ac/H4K5) (protein PBX1 (A0A087X0P4)): 0.6964
B6 log2 (H4K5ac8ac/H4K5) (protein PBX1 (A0A087X0P4)): 0.06283
A6 log2 (H4K5ac8ac/H4K5) (protein POLR1A (B9ZVN9)): 0.06415
B6 log2 (H4K5ac8ac/H4K5) (protein POLR1A (B9ZVN9)): -0.04145
A6 log2 (H4K5ac8ac/H4K5) (protein PPA1 (Q15181)): 0.1577
B6 log2 (H4K5ac8ac/H4K5) (protein PPA1 (Q15181)): 0.07333
A6 log2 (H4K5ac8ac/H4K5) (protein PPP1CB (P62140)): -0.299
B6 log2 (H4K5ac8ac/H4K5) (protein PPP1CB (P62140)): -0.01665
A6 log2 (H4K5ac8ac/H4K5) (protein PPWD1 (F5H7P7)): -0.2794
B6 log2 (H4K5ac8ac/H4K5) (protein PPWD1 (F5H7P7)): -0.02682
A6 log2 (H4K5ac8ac/H4K5) (protein PRPF4 (O43172)): -0.3068
B6 log2 (H4K5ac8ac/H4K5) (protein PRPF4 (O43172)): -0.007391
A6 log2 (H4K5ac8ac/H4K5) (protein PRPF19 (Q9UMS4)): -0.3378
B6 log2 (H4K5ac8ac/H4K5) (protein PRPF19 (Q9UMS4)): 0.03114
A6 log2 (H4K5ac8ac/H4K5) (protein RAB18 (Q9NP72)): -0.7664
B6 log2 (H4K5ac8ac/H4K5) (protein RAB18 (Q9NP72)): 0.06785
A6 log2 (H4K5ac8ac/H4K5) (protein RBBP4 (Q09028)): -0.301
B6 log2 (H4K5ac8ac/H4K5) (protein RBBP4 (Q09028)): -0.04139
A6 log2 (H4K5ac8ac/H4K5) (protein RBBP5 (Q15291)): 0.327
B6 log2 (H4K5ac8ac/H4K5) (protein RBBP5 (Q15291)): 0.03881
A6 log2 (H4K5ac8ac/H4K5) (protein RBM17 (Q5W011)): -0.1033
B6 log2 (H4K5ac8ac/H4K5) (protein RBM17 (Q5W011)): -0.0008232
A6 log2 (H4K5ac8ac/H4K5) (protein RFC4 (C9JTT7)): -0.05533
B6 log2 (H4K5ac8ac/H4K5) (protein RFC4 (C9JTT7)): 0.05642
A6 log2 (H4K5ac8ac/H4K5) (protein RIF1 (Q5UIP0)): 0.1175
B6 log2 (H4K5ac8ac/H4K5) (protein RIF1 (Q5UIP0)): 0.06957
A6 log2 (H4K5ac8ac/H4K5) (protein RLTPR (Q6F5E8)): 0.7852
B6 log2 (H4K5ac8ac/H4K5) (protein RLTPR (Q6F5E8)): 0.007574
A6 log2 (H4K5ac8ac/H4K5) (protein RNF113A (O15541)): -0.4653
B6 log2 (H4K5ac8ac/H4K5) (protein RNF113A (O15541)): 0.03846
A6 log2 (H4K5ac8ac/H4K5) (protein RPL18A (M0R3D6)): -0.4315
B6 log2 (H4K5ac8ac/H4K5) (protein RPL18A (M0R3D6)): -0.04492
A6 log2 (H4K5ac8ac/H4K5) (protein RPL23 (P62829)): -0.1756
B6 log2 (H4K5ac8ac/H4K5) (protein RPL23 (P62829)): 0.05216
A6 log2 (H4K5ac8ac/H4K5) (protein SART1 (O43290)): -0.3683
B6 log2 (H4K5ac8ac/H4K5) (protein SART1 (O43290)): 0.001654
A6 log2 (H4K5ac8ac/H4K5) (protein SEPT9 (Q9UHD8)): 0.1535
B6 log2 (H4K5ac8ac/H4K5) (protein SEPT9 (Q9UHD8)): -0.026
A6 log2 (H4K5ac8ac/H4K5) (protein SKP1 (E5RJR5)): -0.01806
B6 log2 (H4K5ac8ac/H4K5) (protein SKP1 (E5RJR5)): 0.0159
A6 log2 (H4K5ac8ac/H4K5) (protein SMARCC1 (Q92922)): -0.08326
B6 log2 (H4K5ac8ac/H4K5) (protein SMARCC1 (Q92922)): 0.04543
A6 log2 (H4K5ac8ac/H4K5) (protein SMC4 (E9PD53)): -0.08362
B6 log2 (H4K5ac8ac/H4K5) (protein SMC4 (E9PD53)): 0.02245
A6 log2 (H4K5ac8ac/H4K5) (protein SRP9 (P49458)): -0.01043
B6 log2 (H4K5ac8ac/H4K5) (protein SRP9 (P49458)): 0.03654
A6 log2 (H4K5ac8ac/H4K5) (protein SRPRB (H7C4H2)): 0.3686
B6 log2 (H4K5ac8ac/H4K5) (protein SRPRB (H7C4H2)): 0.07795
A6 log2 (H4K5ac8ac/H4K5) (protein STRAP (Q9Y3F4)): 0.01226
B6 log2 (H4K5ac8ac/H4K5) (protein STRAP (Q9Y3F4)): 0.01225
A6 log2 (H4K5ac8ac/H4K5) (protein STUB1 (Q9UNE7)): 0.5197
B6 log2 (H4K5ac8ac/H4K5) (protein STUB1 (Q9UNE7)): 0.03834
A6 log2 (H4K5ac8ac/H4K5) (protein SUGP2 (M0R3F6)): -0.3599
B6 log2 (H4K5ac8ac/H4K5) (protein SUGP2 (M0R3F6)): 0.02065
A6 log2 (H4K5ac8ac/H4K5) (protein SYMPK (Q92797)): -0.08997
B6 log2 (H4K5ac8ac/H4K5) (protein SYMPK (Q92797)): -0.0308
A6 log2 (H4K5ac8ac/H4K5) (protein TBC1D4 (O60343)): 0.1383
B6 log2 (H4K5ac8ac/H4K5) (protein TBC1D4 (O60343)): -0.03399
A6 log2 (H4K5ac8ac/H4K5) (protein TBL3 (Q12788)): -0.1597
B6 log2 (H4K5ac8ac/H4K5) (protein TBL3 (Q12788)): -0.02533
A6 log2 (H4K5ac8ac/H4K5) (protein TKT (P29401)): -0.1341
B6 log2 (H4K5ac8ac/H4K5) (protein TKT (P29401)): 0.0497
A6 log2 (H4K5ac8ac/H4K5) (protein TMPO (P42167)): 0.4117
B6 log2 (H4K5ac8ac/H4K5) (protein TMPO (P42167)): 0.03759
A6 log2 (H4K5ac8ac/H4K5) (protein TTLL12 (Q14166)): 0.2441
B6 log2 (H4K5ac8ac/H4K5) (protein TTLL12 (Q14166)): 0.0292
A6 log2 (H4K5ac8ac/H4K5) (protein TXLNG (Q9NUQ3)): 0.4545
B6 log2 (H4K5ac8ac/H4K5) (protein TXLNG (Q9NUQ3)): -0.0116
A6 log2 (H4K5ac8ac/H4K5) (protein UHRF1 (Q96T88)): -0.6652
B6 log2 (H4K5ac8ac/H4K5) (protein UHRF1 (Q96T88)): 0.04746
A6 log2 (H4K5ac8ac/H4K5) (protein UHRF2 (Q96PU4)): -0.006334
B6 log2 (H4K5ac8ac/H4K5) (protein UHRF2 (Q96PU4)): 0.0767
A6 log2 (H4K5ac8ac/H4K5) (protein UPF1 (Q92900)): -0.46
B6 log2 (H4K5ac8ac/H4K5) (protein UPF1 (Q92900)): -0.01045
A6 log2 (H4K5ac8ac/H4K5) (protein VAPB (O95292)): -0.312
B6 log2 (H4K5ac8ac/H4K5) (protein VAPB (O95292)): 0.06269
A6 log2 (H4K5ac8ac/H4K5) (protein WAPAL (Q7Z5K2)): 0.1532
B6 log2 (H4K5ac8ac/H4K5) (protein WAPAL (Q7Z5K2)): -0.009146
A6 log2 (H4K5ac8ac/H4K5) (protein XRCC5 (P13010)): -0.05414
B6 log2 (H4K5ac8ac/H4K5) (protein XRCC5 (P13010)): -0.03221
A6 log2 (H4K5ac8ac/H4K5) [1]: -0.1065
B6 log2 (H4K5ac8ac/H4K5) [1]: 0.02961
A6 log2 (H4K5ac8ac/H4K5) (protein ZNF330 (Q9Y3S2)): 0.1967
B6 log2 (H4K5ac8ac/H4K5) (protein ZNF330 (Q9Y3S2)): -0.03674
A6 log2 (H4K5ac8ac/H4K5) (protein ZNF579 (Q8NAF0)): -0.0908
B6 log2 (H4K5ac8ac/H4K5) (protein ZNF579 (Q8NAF0)): 0.0364
A6 log2 (H4K5ac8ac/H4K5) (protein ZZZ3 (Q8IYH5)): -0.06959
B6 log2 (H4K5ac8ac/H4K5) (protein ZZZ3 (Q8IYH5)): -0.004188
